System: 266295-075-R-J1-PDC spheroid viability
Assay: Anticancer human tumor 266295-075-R-J1-PDC patient-derived head and neck squamous carcinoma cell line growth inhibition [POLQ]
Details: spheroids with HUVEC and MSC; for IC50: curve of first compound; for viability, T/C: stronger effect = lower value; active = viability on the fitted dose curve at most 10% of control; inactive = the rest
Procedure, shortened: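 Growth inhibition in 3D: complex spheroids (tumor PDC, HUVEC, MSC) treated with POLQ inhibitor combinations; where Cmax unknown, highest tested concentration 10 microM, except SN-38 at 1 microM.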
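Note: spheroids exposed to compounds for seven days before readout.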

CC(=O)O[C@H]1C(=O)[C@@]2(C)[C@H]([C@H](OC(=O)c3ccccc3)[C@]3(O)C[C@H](OC(=O)[C@H](O)[C@@H](NC(=O)c4ccccc4)c4ccccc4)C(C)=C1C3(C)C)[C@]1(OC(C)=O)CO[C@@H]1C[C@@H]2O + Nc1ccc(C#CCN(C(=O)Cc2ncc(C(F)(F)F)cc2C(F)(F)F)c2ccc(F)cc2)nn1
inactive: viability, T/C (second compound 0.0316 µM, first compound 0.00949 µM) 98.3% | viability, T/C (second compound 0.0316 µM, first compound 0.03 µM) 78.9% | viability, T/C (second compound 0.0316 µM, first compound 0.0949 µM) 73.9% | viability, T/C (second compound 0.0316 µM, first compound 0.3 µM) 76% | viability, T/C (second compound 0.0316 µM, first compound 0.949 µM) 78.8% | viability, T/C (second compound 0.0316 µM, first compound 3 µM) 78.3% | viability, T/C (second compound 0.1 µM, first compound 0.00949 µM) 75.6% | viability, T/C (second compound 0.1 µM, first compound 0.03 µM) 84% | viability, T/C (second compound 0.1 µM, first compound 0.0949 µM) 69.3% | viability, T/C (second compound 0.1 µM, first compound 0.3 µM) 69.3% | viability, T/C (second compound 0.1 µM, first compound 0.949 µM) 70.7% | viability, T/C (second compound 0.1 µM, first compound 3 µM) 71.3% | viability, T/C (second compound 0.316 µM, first compound 0.00949 µM) 94.1% | viability, T/C (second compound 0.316 µM, first compound 0.03 µM) 82.9% | viability, T/C (second compound 0.316 µM, first compound 0.0949 µM) 63.7% | viability, T/C (second compound 0.316 µM, first compound 0.3 µM) 55.3% | viability, T/C (second compound 0.316 µM, first compound 0.949 µM) 77.5% | viability, T/C (second compound 0.316 µM, first compound 3 µM) 61.4% | viability, T/C (second compound 1 µM, first compound 0.00949 µM) 81.3% | viability, T/C (second compound 1 µM, first compound 0.03 µM) 59.1% | viability, T/C (second compound 1 µM, first compound 0.0949 µM) 69% | viability, T/C (second compound 1 µM, first compound 0.3 µM) 70.7% | viability, T/C (second compound 1 µM, first compound 0.949 µM) 72.7% | viability, T/C (second compound 1 µM, first compound 3 µM) 66% | viability, T/C (second compound 3.16 µM, first compound 0.00949 µM) 71% | viability, T/C (second compound 3.16 µM, first compound 0.03 µM) 80.5% | viability, T/C (second compound 3.16 µM, first compound 0.0949 µM) 77.4% | viability, T/C (second compound 3.16 µM, first compound 0.3 µM) 62.8% | viability, T/C (second compound 3.16 µM, first compound 0.949 µM) 65% | viability, T/C (second compound 3.16 µM, first compound 3 µM) 67.4% | viability, T/C (second compound 10 µM, first compound 0.00949 µM) 72.4% | viability, T/C (second compound 10 µM, first compound 0.03 µM) 74.6% | viability, T/C (second compound 10 µM, first compound 0.0949 µM) 63% | viability, T/C (second compound 10 µM, first compound 0.3 µM) 71.1% | viability, T/C (second compound 10 µM, first compound 0.949 µM) 76.7% | viability, T/C (second compound 10 µM, first compound 3 µM) 77.2%
> 3 µM: IC50 (second compound 0.0316 µM) | IC50 (second compound 0.1 µM) | IC50 (second compound 0.316 µM) | IC50 (second compound 1 µM) | IC50 (second compound 3.16 µM) | IC50 (second compound 10 µM)
